# Experiments:
# [1] = target: T1, Delta-type opioid receptor (Homo sapiens, UniProt P41143); assay: Displacement of [3H]C1-DPDPE from human recombinant Opioid receptor delta 1 on CHO cell membranes.; assay type: cell-based
# [2] = target: Opioid receptors; mu & delta (Homo sapiens) (UniProt P41143+P35372); assay: Selectivity between mu opioid receptor and delta opioid receptor.; assay type: functional
# [3] = target: T2, Mu-type opioid receptor (Homo sapiens, UniProt P35372); assay: Displacement of [3H]DAMGO from human recombinant Opioid receptor mu 1 on CHO cell membranes.; assay type: cell-based
# T2 sequence (P35372 whole entry): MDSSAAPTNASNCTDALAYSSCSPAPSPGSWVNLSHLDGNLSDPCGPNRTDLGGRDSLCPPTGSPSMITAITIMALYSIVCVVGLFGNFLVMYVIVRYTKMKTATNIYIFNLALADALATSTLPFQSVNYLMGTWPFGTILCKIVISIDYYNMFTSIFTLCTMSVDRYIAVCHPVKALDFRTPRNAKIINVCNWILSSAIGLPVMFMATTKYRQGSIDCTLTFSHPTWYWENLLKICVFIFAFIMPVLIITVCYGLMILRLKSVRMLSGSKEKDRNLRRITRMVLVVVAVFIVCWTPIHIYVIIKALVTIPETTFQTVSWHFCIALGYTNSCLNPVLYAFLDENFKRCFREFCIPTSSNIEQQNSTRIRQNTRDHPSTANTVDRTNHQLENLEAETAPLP
# [4] = target: T3, Kappa-type opioid receptor (Homo sapiens, UniProt P41145); assay: Displacement of [3H]U-69593 from human recombinant Opioid receptor kappa 1 on CHO cell membranes.; assay type: cell-based
# T3 sequence (P41145 whole entry): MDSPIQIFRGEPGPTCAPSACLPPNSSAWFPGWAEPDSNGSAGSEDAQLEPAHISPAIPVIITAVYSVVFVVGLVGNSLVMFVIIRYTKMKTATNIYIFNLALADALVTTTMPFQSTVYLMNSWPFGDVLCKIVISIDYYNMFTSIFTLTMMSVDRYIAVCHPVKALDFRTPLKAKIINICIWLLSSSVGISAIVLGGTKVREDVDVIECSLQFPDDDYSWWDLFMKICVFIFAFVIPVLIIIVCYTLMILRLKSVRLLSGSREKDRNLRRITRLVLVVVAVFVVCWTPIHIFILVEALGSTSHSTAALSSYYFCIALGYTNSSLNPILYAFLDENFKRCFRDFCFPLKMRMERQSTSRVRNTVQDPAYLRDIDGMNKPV
# [5] = target: Opioid receptors; delta & kappa (Homo sapiens) (UniProt P41145+P41143); assay: Selectivity between kappa opioid receptor and delta opioid receptor.; assay type: functional
# Opioid receptors; delta & kappa (Homo sapiens), sequence (P41143 whole entry, looked up): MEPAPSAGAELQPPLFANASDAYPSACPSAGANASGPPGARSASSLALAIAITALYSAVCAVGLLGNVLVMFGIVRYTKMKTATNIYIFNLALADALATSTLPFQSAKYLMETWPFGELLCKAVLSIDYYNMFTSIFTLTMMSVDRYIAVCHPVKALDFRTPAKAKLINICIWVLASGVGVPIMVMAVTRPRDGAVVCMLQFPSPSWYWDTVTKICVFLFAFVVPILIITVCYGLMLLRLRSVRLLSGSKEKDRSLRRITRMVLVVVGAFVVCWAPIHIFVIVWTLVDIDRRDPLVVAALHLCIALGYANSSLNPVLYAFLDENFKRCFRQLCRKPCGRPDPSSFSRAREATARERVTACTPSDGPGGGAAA
# Opioid receptors; delta & kappa (Homo sapiens), sequence (P41145 whole entry, looked up): as the sequence (P41145 whole entry) above
# [6] = target: T1, Delta-type opioid receptor; assay: Stimulation of [35S]GTP-gamma-S, binding at human recombinant Opioid receptor delta 1 transfected into CHO cells.; assay type: functional, cell-based
# [7] = target: T2, Mu-type opioid receptor; assay: Stimulation of [35S]GTP-gamma-S, binding to recombinant human Opioid receptor mu 1 expressed in CHO cells; assay type: functional, cell-based
# [8] = target: T2, Mu-type opioid receptor; assay: Percent stimulation of [35S]GTP-gamma-S, binding in recombinant human Opioid receptor mu 1 transfected into CHO cells; assay type: functional, cell-based
# [9] = target: T3, Kappa-type opioid receptor; assay: Percent stimulation of […] binding in recombinant human Opioid receptor kappa 1 transfected into CHO cells: Antagonist activity; assay type: cell-based; details: filed as antagonist
# [10] = target: T1, Delta-type opioid receptor; assay: Percent stimulation of [35S]GTP-gamma-S, binding to recombinant human Opioid receptor delta 1 expressed in CHO cells; assay type: functional, cell-based
# [11] = target: T3, Kappa-type opioid receptor; assay: Percent stimulation of [35S]GTP-gamma-S, binding in recombinant human Opioid receptor kappa 1 transfected into CHO cells; assay type: functional, cell-based
# [12] = target: T3, Kappa-type opioid receptor; assay: Stimulation of […] binding at human recombinant Opioid receptor kappa 1 transfected into CHO cells.; assay type: cell-based
# [13] = target: T2, Mu-type opioid receptor; assay: Percent stimulation of [35S]GTP-gamma-S, binding in recombinant human mu opioid receptor transfected into CHO cells; assay type: functional, cell-based
# [14] = target: T3, Kappa-type opioid receptor; assay: Percent stimulation of [35S]GTP-gamma-S, binding in recombinant human Opioid receptor kappa 1 transfected into CHO cells: Antagonist activity; assay type: functional, cell-based; details: filed as antagonist
# Opioid receptors; mu & delta (Homo sapiens), sequence (P35372 whole entry, looked up): as the sequence (P35372 whole entry) above
# Opioid receptors; mu & delta (Homo sapiens), sequence (P41143 whole entry, looked up): as the sequence (P41143 whole entry, looked up) above
# T1 sequence (P41143 whole entry): as the sequence (P41143 whole entry, looked up) above
structure (smiles),measurement,setting,value
CCN[C@@]12Cc3c([nH]c4ccccc34)[C@@H]3Oc4c(O)ccc5c4[C@@]31CCN(C)C2C5,Ki,[1],0.73 nM
same,Selectivity,[2],105
same,Ki,[3],76.3 nM
same,Ki,[4],63.8 nM
same,Selectivity,[5],87
same,EC50,[6],0.33 nM
same,EC50,[7],184 nM
same,Stimulation,[8],50%
same,Activity,[9],Antagonist
same,Stimulation,[10],43%
CN1CC[C@]23c4c5ccc(O)c4O[C@H]2c2[nH]c4ccccc4c2C[C@@]3(CCCc2ccccc2)C1C5,Ki,[1],23.6 nM
same,Selectivity,[2],0.2
same,Ki,[3],4.91 nM
same,Ki,[4],63.3 nM
same,Selectivity,[5],2.7
same,EC50,[6],7.53 nM
same,EC50,[7],21.5 nM
same,Stimulation,[8],91%
same,Stimulation,[11],67%
same,Stimulation,[10],65%
same,EC50,[12],96.5 nM
CN1CC[C@]23c4c5ccc(O)c4O[C@H]2c2[nH]c4ccccc4c2C[C@@]3(NC(=O)Cc2ccccc2)C1C5,Ki,[1],6.55 nM
same,Selectivity,[2],4.5
same,Ki,[3],29.3 nM
same,Ki,[4],148 nM
same,Selectivity,[5],23
same,EC50,[6],1.2 nM
same,EC50,[7],95 nM
same,Stimulation,[8],53%
same,Stimulation,[11],36%
same,Stimulation,[10],89%
same,EC50,[12],96.2 nM
CCCCCCC(=O)N[C@@]12Cc3c([nH]c4ccccc34)[C@@H]3Oc4c(O)ccc5c4[C@@]31CCN(C)C2C5,Ki,[1],10.3 nM
same,Selectivity,[2],3.2
same,Ki,[3],33.4 nM
same,Ki,[4],409 nM
same,Selectivity,[5],40
same,EC50,[6],19 nM
same,EC50,[7],51.4 nM
same,Stimulation,[13],44%
same,Activity,[14],Antagonist
same,Stimulation,[10],55%
CN1CC[C@]23c4c5ccc(O)c4O[C@H]2c2[nH]c4ccccc4c2C[C@@]3(NCCc2ccccc2)C1C5,Ki,[1],1.1 nM
same,Selectivity,[2],1.5
same,Ki,[3],1.68 nM
same,Ki,[4],13.8 nM
same,Selectivity,[5],13
same,EC50,[6],0.95 nM
same,EC50,[7],5.33 nM
same,Stimulation,[8],93%
same,Stimulation,[11],74%
same,Stimulation,[10],33%
same,EC50,[12],16.4 nM
CN1CC[C@]23c4c5ccc(O)c4O[C@H]2c2[nH]c4ccccc4c2C[C@@]3(NC(=O)CCc2ccccc2)C1C5,Ki,[1],4.23 nM
same,Selectivity,[2],2.3
same,Ki,[3],9.61 nM
same,Ki,[4],24.5 nM
same,Selectivity,[5],5.8
same,EC50,[6],1.4 nM
same,EC50,[7],5.2 nM
same,Stimulation,[8],27%
same,Activity,[14],Antagonist
same,Stimulation,[10],72%
CN1CC[C@]23c4c5ccc(O)c4O[C@H]2c2[nH]c4ccccc4c2C[C@@]3(O)[C@H]1C5 [OXYMORPHINDOLE],Ki,[1],1.28 nM
same,Selectivity,[2],284
same,Ki,[3],363 nM
same,Ki,[4],396 nM
same,Selectivity,[5],309
Oc1ccc2c3c1O[C@H]1c4[nH]c5ccccc5c4C[C@@]4(O)[C@@H](C2)N(CC2CC2)CC[C@]314,Activity,[14],Antagonist
CN1CC[C@]23c4c5ccc(O)c4O[C@H]2c2[nH]c4ccccc4c2C[C@@]3(NCCCc2ccccc2)C1C5,Ki,[1],1.95 nM
same,Selectivity,[2],5
same,Ki,[3],10.2 nM
same,Ki,[4],7.79 nM
same,Selectivity,[5],4
same,EC50,[6],0.87 nM
same,EC50,[7],45.1 nM
same,Stimulation,[13],50%
same,Stimulation,[11],65%
same,Stimulation,[10],37%
same,EC50,[12],27.2 nM
Oc1ccc2c3c1O[C@H]1c4[nH]c5c(c4C[C@@]4(O)[C@@H](C2)N(CC2CC2)CC[C@]314)C[C@@]1(O)[C@H]2Cc3ccc(O)c4c3[C@@]1(CCN2CC1CC1)[C@H]5O4,Activity,[14],Antagonist
C[C@@H](NC(=O)[C@@H](N)Cc1ccc(O)cc1)C(=O)NCC(=O)N(C)[C@@H](Cc1ccccc1)C(=O)NCCO,Stimulation,[8],100%
same,Stimulation,[11],62%
CCCCC(=O)N[C@@]12Cc3c([nH]c4ccccc34)[C@@H]3Oc4c(O)ccc5c4[C@@]31CCN(C)C2C5,Ki,[1],2.07 nM
same,Selectivity,[2],25
same,Ki,[3],51.1 nM
same,Ki,[4],723 nM
same,Selectivity,[5],349
same,EC50,[6],3.3 nM
same,EC50,[7],149 nM
same,Activity,[8],31%
same,Activity,[14],Antagonist
same,Stimulation,[10],74%
same,EC50,[12],56.9 nM
CN1CC[C@]23c4c5ccc(O)c4O[C@H]2c2[nH]c4ccccc4c2C[C@@]3(N)C1C5,Ki,[1],2.88 nM
same,Selectivity,[2],365
same,Ki,[3],1050 nM
same,Ki,[4],399 nM
same,EC50,[6],8.6 nM
same,EC50,[7],> 1000 nM
same,Activity,[9],Antagonist
same,Stimulation,[10],38%
CCCCN[C@@]12Cc3c([nH]c4ccccc34)[C@@H]3Oc4c(O)ccc5c4[C@@]31CCN(C)C2C5,Ki,[1],1.39 nM
same,Selectivity,[2],27
same,Ki,[3],37.2 nM
same,Ki,[4],36.1 nM
same,Selectivity,[5],26
same,EC50,[6],4.71 nM
same,EC50,[7],272 nM
same,Stimulation,[8],40%
same,Stimulation,[11],33%
same,Stimulation,[10],36%
same,EC50,[12],936 nM

# Source: ChEMBL document CHEMBL1144921, “14-amino, 14-alkylamino, and 14-acylamino analogs of oxymorphindole. Differential effects on opioid receptor binding and functional profiles” (J Med Chem, 2003)
